{"source": "PubChem BioAssay (NCI)", "assay_in_all_cases": "NCI tumour cell line growth inhibition, 48 h", "key": {"SN12K1 renal": {"test_system": "SN12K1 renal"}, "P388 leukemia": {"test_system": "P388 leukemia"}, "SNB-78 CNS": {"test_system": "SNB-78 CNS"}, "HOP-18 NSCLC": {"test_system": "HOP-18 NSCLC"}, "P388/ADR leukemia": {"test_system": "P388/ADR leukemia"}, "DU-145 prostate": {"test_system": "DU-145 prostate"}, "T-47D breast": {"test_system": "T-47D breast"}, "MDA-N": {"test_system": "MDA-N"}, "SR leukemia": {"test_system": "SR leukemia"}, "RXF-631 renal": {"test_system": "RXF-631 renal"}}, "note": "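Grown in 96-well plates, cells were treated for 48 hours with each compound at five concentrations. Insufficient inhibition: endpoint recorded as highest concentration tested. GI50 = concentration required for 50% inhibition of growth. The concentration for full growth arrest is given as TGI.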"}
{"smiles": "Nc1ncnc2c1ncn2C1CCC(CO)O1", "note": "(stereo unspecified)", "values": [{"measurement": "TGI", "setting": "SN12K1 renal", "result": "> 69.5", "unit": "µM"}, {"measurement": "TGI", "setting": "P388 leukemia", "result": "> 100", "unit": "µM"}, {"measurement": "TGI", "setting": "SNB-78 CNS", "result": "> 100", "unit": "µM"}, {"measurement": "TGI", "setting": "HOP-18 NSCLC", "result": "> 100", "unit": "µM"}, {"measurement": "TGI", "setting": "P388/ADR leukemia", "result": "> 77.4", "unit": "µM"}]}
{"smiles": "CCOP(=O)(OCC)C(Cc1ccc(OC)c(OC)c1)N=C(c1ccccc1)c1ccccc1", "note": "(stereo unspecified)", "values": [{"measurement": "TGI", "setting": "DU-145 prostate", "result": "> 100", "unit": "µM"}, {"measurement": "TGI", "setting": "T-47D breast", "result": 56.8, "unit": "µM"}, {"measurement": "TGI", "setting": "MDA-N", "result": "> 100", "unit": "µM"}, {"measurement": "TGI", "setting": "SR leukemia", "result": 46.4, "unit": "µM"}]}
{"smiles": "CC(C)=CCc1c(C)cc2cc3c(c(O)c2c1O)C(O)=CC(=O)C3(CC=C(C)C)C/C=C(\\C)CO", "note": "(stereo unspecified)", "values": [{"measurement": "TGI", "setting": "SN12K1 renal", "result": 62, "unit": "µM"}, {"measurement": "TGI", "setting": "P388 leukemia", "result": 101, "unit": "µM"}, {"measurement": "TGI", "setting": "HOP-18 NSCLC", "result": 35.3, "unit": "µM"}, {"measurement": "TGI", "setting": "P388/ADR leukemia", "result": 80, "unit": "µM"}]}
{"smiles": "CC[C@@H](C(=O)[C@@H](C)[C@@H](O)[C@H](C)CCc1ccc(C)c(O)c1C(=O)O)[C@H]1O[C@](CC)([C@H]2CC[C@](O)(CC)[C@H](C)O2)C[C@@H]1C", "values": [{"measurement": "TGI", "setting": "SNB-78 CNS", "result": 17.1, "unit": "µM"}, {"measurement": "TGI", "setting": "RXF-631 renal", "result": 10.7, "unit": "µM"}, {"measurement": "TGI", "setting": "HOP-18 NSCLC", "result": 13.1, "unit": "µM"}]}
{"smiles": "COc1c2c(cc3c(CCc4ccccc4)cc(=O)oc13)CCC(C)(C)O2", "values": [{"measurement": "TGI", "setting": "SR leukemia", "result": "> 100", "unit": "µM"}]}
{"smiles": "CCOc1ccc2c(ccc(/C=C\\c3cc(C)c4cccnc4c3O)[n+]2C)c1", "values": [{"measurement": "TGI", "setting": "DU-145 prostate", "result": 18.6, "unit": "µM"}, {"measurement": "TGI", "setting": "T-47D breast", "result": 6.2, "unit": "µM"}, {"measurement": "TGI", "setting": "HOP-18 NSCLC", "result": 7.49, "unit": "µM"}, {"measurement": "TGI", "setting": "SR leukemia", "result": 5.73, "unit": "µM"}]}
{"smiles": "O=C1CN2C(Cl)(Cl)C2(c2ccccc2)c2cc(Cl)ccc2N1CC(F)(F)F", "note": "(stereo unspecified)", "values": [{"measurement": "TGI", "setting": "SR leukemia", "result": 69.9, "unit": "µM"}]}
{"smiles": "CCOc1ccc(/C=C/[N+](=O)[O-])cc1", "values": [{"measurement": "GI50", "setting": "DU-145 prostate", "result": 10.4, "unit": "µM"}, {"measurement": "TGI", "setting": "DU-145 prostate", "result": 22.2, "unit": "µM"}, {"measurement": "GI50", "setting": "T-47D breast", "result": 17.6, "unit": "µM"}, {"measurement": "TGI", "setting": "T-47D breast", "result": 42.8, "unit": "µM"}, {"measurement": "GI50", "setting": "SR leukemia", "result": 2.56, "unit": "µM"}, {"measurement": "TGI", "setting": "SR leukemia", "result": 6.37, "unit": "µM"}]}
{"smiles": "[C-]#[O+].[Cl][Sn]([Cl])[Cl].[Cl][Sn]([Cl])[Cl].[Pt].c1ccncc1", "values": [{"measurement": "GI50", "setting": "SN12K1 renal", "result": "> 75.6", "unit": "µM"}, {"measurement": "TGI", "setting": "SN12K1 renal", "result": "> 100", "unit": "µM"}, {"measurement": "GI50", "setting": "P388 leukemia", "result": 33.4, "unit": "µM"}, {"measurement": "TGI", "setting": "P388 leukemia", "result": "> 100", "unit": "µM"}, {"measurement": "GI50", "setting": "P388/ADR leukemia", "result": 35.4, "unit": "µM"}, {"measurement": "TGI", "setting": "P388/ADR leukemia", "result": "> 100", "unit": "µM"}]}
{"smiles": "O=C(O)c1cc(=O)[nH]c(=S)[nH]1", "values": [{"measurement": "TGI", "setting": "DU-145 prostate", "result": "> 100", "unit": "µM"}, {"measurement": "TGI", "setting": "T-47D breast", "result": "> 100", "unit": "µM"}, {"measurement": "TGI", "setting": "MDA-N", "result": "> 100", "unit": "µM"}]}
{"smiles": "O=C(Nc1nc2ccc([N+](=O)[O-])cc2[n+]([O-])n1)C(F)(F)F", "values": [{"measurement": "TGI", "setting": "DU-145 prostate", "result": "> 100", "unit": "µM"}, {"measurement": "TGI", "setting": "T-47D breast", "result": "> 100", "unit": "µM"}, {"measurement": "TGI", "setting": "MDA-N", "result": 34, "unit": "µM"}, {"measurement": "TGI", "setting": "SR leukemia", "result": "> 100", "unit": "µM"}]}
{"smiles": "CC(C)=CC(=O)OC1C2C(C)C(=O)OC2C(O)C(C)C2C=CC(=O)C21C", "note": "(stereo unspecified)", "values": [{"measurement": "TGI", "setting": "SN12K1 renal", "result": 6.28, "unit": "µM"}, {"measurement": "TGI", "setting": "P388 leukemia", "result": 1.29, "unit": "µM"}, {"measurement": "TGI", "setting": "SNB-78 CNS", "result": 9.88, "unit": "µM"}, {"measurement": "TGI", "setting": "HOP-18 NSCLC", "result": 11.2, "unit": "µM"}, {"measurement": "TGI", "setting": "P388/ADR leukemia", "result": 4.01, "unit": "µM"}]}
{"smiles": "CCCCN(CCCC)CCCCNc1c(C)cnc2cc(Cl)ccc12", "values": [{"measurement": "TGI", "setting": "SNB-78 CNS", "result": "> 100", "unit": "µM"}, {"measurement": "TGI", "setting": "RXF-631 renal", "result": 33.5, "unit": "µM"}, {"measurement": "TGI", "setting": "HOP-18 NSCLC", "result": "> 100", "unit": "µM"}]}
{"smiles": "Cc1ccc(S(=O)(=O)Oc2cc(S(=O)(=O)O)cc3cc(S(=O)(=O)O)cc(N)c23)cc1", "values": [{"measurement": "TGI", "setting": "DU-145 prostate", "result": "> 100", "unit": "µM"}, {"measurement": "TGI", "setting": "T-47D breast", "result": "> 100", "unit": "µM"}, {"measurement": "TGI", "setting": "MDA-N", "result": "> 100", "unit": "µM"}, {"measurement": "TGI", "setting": "SR leukemia", "result": "> 100", "unit": "µM"}]}
{"smiles": "CCN(CC)CCCC(Nc1c2ccc(Cl)cc2nc2ccc(OC)cc12)c1ccc(F)cc1", "note": "(stereo unspecified)", "values": [{"measurement": "GI50", "setting": "DU-145 prostate", "result": 3.23, "unit": "µM"}, {"measurement": "TGI", "setting": "DU-145 prostate", "result": 10.4, "unit": "µM"}, {"measurement": "GI50", "setting": "T-47D breast", "result": 2.15, "unit": "µM"}, {"measurement": "TGI", "setting": "T-47D breast", "result": 5.66, "unit": "µM"}, {"measurement": "GI50", "setting": "SR leukemia", "result": 2.19, "unit": "µM"}, {"measurement": "TGI", "setting": "SR leukemia", "result": 5.88, "unit": "µM"}]}
{"smiles": "CN1C2C=C(c3ccccc3)CC1CC2", "note": "(stereo unspecified)", "values": [{"measurement": "TGI", "setting": "HOP-18 NSCLC", "result": "> 100", "unit": "µM"}, {"measurement": "TGI", "setting": "SR leukemia", "result": "> 100", "unit": "µM"}]}
{"smiles": "O=C(Nc1ccc(Cl)cc1)/C(Cc1cccc[n+]1[O-])=N\\Nc1ccc([N+](=O)[O-])cc1[N+](=O)[O-]", "values": [{"measurement": "TGI", "setting": "SNB-78 CNS", "result": "> 100", "unit": "µM"}, {"measurement": "TGI", "setting": "RXF-631 renal", "result": "> 100", "unit": "µM"}]}
{"smiles": "c1ccc2c(c1)nc1n2CSC1", "values": [{"measurement": "TGI", "setting": "SNB-78 CNS", "result": "> 100", "unit": "µM"}, {"measurement": "TGI", "setting": "RXF-631 renal", "result": "> 100", "unit": "µM"}, {"measurement": "TGI", "setting": "HOP-18 NSCLC", "result": "> 100", "unit": "µM"}]}
{"smiles": "CC1=C[C@]2(CC(C)C3C(CC4(C)C5CCC6C(C)(C)C(=O)CC[C@@]67C[C@@]57CC[C@]34C)O2)OC1=O", "note": "(stereo partly specified)", "values": [{"measurement": "TGI", "setting": "SNB-78 CNS", "result": 71.9, "unit": "µM"}, {"measurement": "TGI", "setting": "RXF-631 renal", "result": 30.5, "unit": "µM"}, {"measurement": "TGI", "setting": "HOP-18 NSCLC", "result": "> 100", "unit": "µM"}, {"measurement": "TGI", "setting": "SR leukemia", "result": "> 100", "unit": "µM"}]}
{"smiles": "CN1CCN(Cc2ccc(NC(=O)c3ccc(C#N)c(C#Cc4cnc(N)c5ncccc45)c3)cc2C(F)(F)F)CC1", "values": [{"measurement": "GI50", "setting": "T-47D breast", "result": 28.6, "unit": "µM"}, {"measurement": "TGI", "setting": "T-47D breast", "result": "> 100", "unit": "µM"}]}
{"smiles": "CC(=O)[O-].CC(=O)[O-].[NH2-].[Pt+2].c1ccncc1", "values": [{"measurement": "GI50", "setting": "DU-145 prostate", "result": 4.62, "unit": "µM"}, {"measurement": "TGI", "setting": "DU-145 prostate", "result": 51.9, "unit": "µM"}, {"measurement": "GI50", "setting": "T-47D breast", "result": 59.4, "unit": "µM"}, {"measurement": "TGI", "setting": "T-47D breast", "result": "> 100", "unit": "µM"}]}
{"smiles": "O=C1Nc2ccccc2Nc2nc3cccccc-3c21", "values": [{"measurement": "TGI", "setting": "SNB-78 CNS", "result": "> 100", "unit": "µM"}, {"measurement": "TGI", "setting": "SR leukemia", "result": "> 100", "unit": "µM"}]}
{"smiles": "CC1(C)CCc2cc3c(-c4ccccc4)cc(=O)oc3cc2O1", "values": [{"measurement": "TGI", "setting": "SNB-78 CNS", "result": "> 100", "unit": "µM"}, {"measurement": "TGI", "setting": "RXF-631 renal", "result": "> 100", "unit": "µM"}, {"measurement": "TGI", "setting": "HOP-18 NSCLC", "result": "> 100", "unit": "µM"}]}
{"smiles": "Cc1nc2ccccc2c(=O)n1CC(=O)O", "values": [{"measurement": "TGI", "setting": "SN12K1 renal", "result": "> 100", "unit": "µM"}, {"measurement": "TGI", "setting": "P388 leukemia", "result": "> 100", "unit": "µM"}, {"measurement": "TGI", "setting": "SNB-78 CNS", "result": "> 100", "unit": "µM"}, {"measurement": "TGI", "setting": "HOP-18 NSCLC", "result": "> 100", "unit": "µM"}, {"measurement": "TGI", "setting": "P388/ADR leukemia", "result": "> 100", "unit": "µM"}]}
